In patent US20170190671A1, “BIS(ARYL)CATECHOL DERIVATIVES AS HERBICIDES” (E I DU PONT DE NEMOURS AND COMPANY, priority 2014, published 2017):

Tests used:
Assay in all cases: Test C postemergence
Type in all cases: in vivo
[1] = tested on: Italian ryegrass (Lolium multiflorum); details: scale 0 to 100
Summary of the method: (§1)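 Seeds sown in a loam soil and sand blend were treated preemergence; plants in peat-moss/vermiculite medium were sprayed at the 1- to 4-leaf stage (2-18 cm). Chemicals were in a non-phytotoxic surfactant-containing solvent. After 13 to 15 days in a greenhouse, injury was visually rated against controls on a 0-100 scale.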

[2] = tested on: barnyardgrass (Echinochloa crus-galli)
Summary of the method: as §1

[3] = tested on: blackgrass (Alopecurus myosuroides); details: scale 0 to 100
Summary of the method: as §1

[4] = tested on: chickweed (common chickweed, Stellaria media); details: scale 0 to 100
Summary of the method: as §1

[5] = tested on: giant foxtail (Setaria faberii); details: scale 0 to 100
Summary of the method: as §1

[6] = tested on: johnsongrass (Sorghum halepense); details: scale 0 to 100
Summary of the method: as §1

kochia (Kochia scoparia) = details: scale 0 to 100
Summary of the method: as §1

[7] = tested on: large (Lg) crabgrass (Digitaria sanguinalis); details: scale 0 to 100
Summary of the method: as §1

[8] = tested on: morningglory (Ipomoea coccinea); details: scale 0 to 100
Summary of the method: as §1

[9] = tested on: oilseed rape (Brassica napus); details: scale 0 to 100
Summary of the method: as §1

[10] = tested on: pigweed (Amaranthus retroflexus); details: scale 0 to 100
Summary of the method: as §1

[11] = tested on: velvetleaf (Abutilon theophrasti); details: scale 0 to 100
Summary of the method: as §1

wild oat (Avena fatua) = details: scale 0 to 100
Summary of the method: as §1

[12] = tested on: winter wheat (Triticum aestivum); details: scale 0 to 100
Summary of the method: as §1

[13] = tested on: yellow nutsedge (Cyperus esculentus); details: scale 0 to 100
Summary of the method: as §1

Fc1ccc(F)c(Oc2ncc(C(F)(F)F)cn2)c1Oc1ncc(Cl)cn1 [Compound 25]
30: Plant response rating, Oilseed Rape ([9]; 8 g ai/ha, postemergence) | Plant response rating, Velvetleaf ([11]; 8 g ai/ha, postemergence) | Plant response rating, Velvetleaf ([11]; Postemergence, 62 g ai/ha)
60: Plant response rating, Chickweed ([4]; Postemergence, 62 g ai/ha) | Plant response rating, Kochia (kochia (Kochia scoparia); Postemergence, 31 g ai/ha) | Plant response rating, Velvetleaf ([11]; Postemergence, 31 g ai/ha)
50: Plant response rating, Chickweed ([4]; Postemergence, 31 g ai/ha) | Plant response rating, Kochia (kochia (Kochia scoparia); Postemergence, 16 g ai/ha) | Plant response rating, Oilseed Rape ([9]; Postemergence, 31 g ai/ha)
5: Plant response rating, Ryegrass, Italian ([1]; Postemergence, 31 g ai/ha) | Plant response rating, Ryegrass, Italian ([1]; Postemergence, 62 g ai/ha) | Plant response rating, Barnyardgrass ([2]; 8 g ai/ha, postemergence, scale 0 to 100 (0 no effect, 100 complete control)) | Plant response rating, Barnyardgrass ([2]; Postemergence, 16 g ai/ha, scale 0 to 100) | Plant response rating, Barnyardgrass ([2]; Postemergence, 31 g ai/ha, scale 0 to 100) | Plant response rating, Blackgrass ([3]; Postemergence, 31 g ai/ha) | Plant response rating, Blackgrass ([3]; Postemergence, 62 g ai/ha) | Plant response rating, Foxtail, Giant ([5]; Postemergence, 62 g ai/ha) | Plant response rating, Johnsongrass ([6]; Postemergence, 16 g ai/ha) | Plant response rating, Johnsongrass ([6]; Postemergence, 31 g ai/ha) | Plant response rating, Johnsongrass ([6]; Postemergence, 62 g ai/ha) | Plant response rating, Crabgrass, Large ([7]; Postemergence, 62 g ai/ha) | Plant response rating, Oat, Wild (wild oat (Avena fatua); 8 g ai/ha, postemergence) | Plant response rating, Nutsedge, Yellow ([13]; Postemergence, 31 g ai/ha)
10: Plant response rating, Barnyardgrass ([2]; Postemergence, 62 g ai/ha, scale 0 to 100) | Plant response rating, Morningglory ([8]; Postemergence, 31 g ai/ha) | Plant response rating, Oat, Wild (wild oat (Avena fatua); Postemergence, 31 g ai/ha) | Plant response rating, Nutsedge, Yellow ([13]; Postemergence, 62 g ai/ha)
75: Plant response rating, Kochia (kochia (Kochia scoparia); Postemergence, 62 g ai/ha) | Plant response rating, Pigweed ([10]; 8 g ai/ha, postemergence)
15: Plant response rating, Morningglory ([8]; Postemergence, 62 g ai/ha) | Plant response rating, Oat, Wild (wild oat (Avena fatua); Postemergence, 62 g ai/ha)
95: Plant response rating, Pigweed ([10]; Postemergence, 62 g ai/ha)
85: Plant response rating, Pigweed ([10]; Postemergence, 31 g ai/ha)
0: Plant response rating, Ryegrass, Italian ([1]; 8 g ai/ha, postemergence) | Plant response rating, Blackgrass ([3]; 8 g ai/ha, postemergence) | Plant response rating, Blackgrass ([3]; Postemergence, 16 g ai/ha) | Plant response rating, Chickweed ([4]; 8 g ai/ha, postemergence) | Plant response rating, Foxtail, Giant ([5]; 8 g ai/ha, postemergence) | Plant response rating, Foxtail, Giant ([5]; Postemergence, 16 g ai/ha) | Plant response rating, Foxtail, Giant ([5]; Postemergence, 31 g ai/ha) | Plant response rating, Johnsongrass ([6]; 8 g ai/ha, postemergence) | Plant response rating, Kochia (kochia (Kochia scoparia); 8 g ai/ha, postemergence) | Plant response rating, Crabgrass, Large ([7]; 8 g ai/ha, postemergence) | Plant response rating, Crabgrass, Large ([7]; Postemergence, 16 g ai/ha) | Plant response rating, Crabgrass, Large ([7]; Postemergence, 31 g ai/ha) | Plant response rating, Wheat ([12]; 8 g ai/ha, postemergence) | Plant response rating, Wheat ([12]; Postemergence, 31 g ai/ha) | Plant response rating, Wheat ([12]; Postemergence, 62 g ai/ha) | Plant response rating, Nutsedge, Yellow ([13]; 8 g ai/ha, postemergence)
20: Plant response rating, Chickweed ([4]; Postemergence, 16 g ai/ha) | Plant response rating, Morningglory ([8]; 8 g ai/ha, postemergence)
45: Plant response rating, Oilseed Rape ([9]; Postemergence, 62 g ai/ha)
